Test results published in US20150175556A1, “DIHYDROPYRIMIDIN-2(1H)-ONES AND DIHYDROPYRIMIDIN-2(1H)-THIONES AS INHIBITORS OF SODIUM IODIDE SYMPORTER” (COMMISSARIAT A L'ENERGIE ATOMIQUE ET AUX ENERGIES …, priority 2012, published 2015).
Like-named read-outs stand apart in the source and are kept apart here.

Columns and labels:
[1] = target: T1, sodium iodide symporter (NIS), iodide transport in FRTL5 cells (Rattus norvegicus, UniProt Q63008); settings: F. Waltz et al., Anal. Biochem., 2010; read-out: IC50, competitive inhibition of iodide transport in FRTL5 cells; cited from earlier work
T1 construct: host or cells: FRTL5 (rat thyroid-derived cells), endogenous NIS
T1 sequence (Q63008 1-618): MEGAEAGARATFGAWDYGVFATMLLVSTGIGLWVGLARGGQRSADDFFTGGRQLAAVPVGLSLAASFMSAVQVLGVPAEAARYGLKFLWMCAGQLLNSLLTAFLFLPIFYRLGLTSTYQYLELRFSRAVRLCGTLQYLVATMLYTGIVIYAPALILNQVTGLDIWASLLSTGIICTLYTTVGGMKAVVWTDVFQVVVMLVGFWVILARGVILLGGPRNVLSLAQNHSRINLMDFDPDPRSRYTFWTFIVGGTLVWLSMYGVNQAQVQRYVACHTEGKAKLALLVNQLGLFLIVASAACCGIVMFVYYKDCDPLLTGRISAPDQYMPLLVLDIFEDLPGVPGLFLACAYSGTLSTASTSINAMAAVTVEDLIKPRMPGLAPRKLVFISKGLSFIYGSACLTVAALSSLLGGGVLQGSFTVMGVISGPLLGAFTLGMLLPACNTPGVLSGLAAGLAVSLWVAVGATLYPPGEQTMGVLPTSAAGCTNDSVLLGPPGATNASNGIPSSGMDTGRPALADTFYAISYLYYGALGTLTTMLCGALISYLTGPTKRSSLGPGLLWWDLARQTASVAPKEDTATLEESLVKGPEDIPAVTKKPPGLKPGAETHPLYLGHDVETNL

[2] = target: T2, iodide transport in rat thyroid-derived cell lines (FRTL5) (Rattus norvegicus, UniProt Q63008); settings: reported in literature (N. Lecat-Guillet et al., 2008); read-out: IC50, iodide uptake in FRTL5 cells; cited from earlier work
T2 construct: host or cells: FRTL5 (rat thyroid-derived cells), endogenous NIS
T2 sequence (Q63008 1-618): T1 sequence (Q63008 1-618)

[3] = concentration up to 200 μM; cited from earlier work
hNIS-HEK293 cells = target: T3, hNIS-HEK293 cells (Homo sapiens, UniProt Q92911); settings: cited from earlier work
T3 construct: host or cells: HEK293 stably expressing human NIS
T3 sequence (Q92911 1-643): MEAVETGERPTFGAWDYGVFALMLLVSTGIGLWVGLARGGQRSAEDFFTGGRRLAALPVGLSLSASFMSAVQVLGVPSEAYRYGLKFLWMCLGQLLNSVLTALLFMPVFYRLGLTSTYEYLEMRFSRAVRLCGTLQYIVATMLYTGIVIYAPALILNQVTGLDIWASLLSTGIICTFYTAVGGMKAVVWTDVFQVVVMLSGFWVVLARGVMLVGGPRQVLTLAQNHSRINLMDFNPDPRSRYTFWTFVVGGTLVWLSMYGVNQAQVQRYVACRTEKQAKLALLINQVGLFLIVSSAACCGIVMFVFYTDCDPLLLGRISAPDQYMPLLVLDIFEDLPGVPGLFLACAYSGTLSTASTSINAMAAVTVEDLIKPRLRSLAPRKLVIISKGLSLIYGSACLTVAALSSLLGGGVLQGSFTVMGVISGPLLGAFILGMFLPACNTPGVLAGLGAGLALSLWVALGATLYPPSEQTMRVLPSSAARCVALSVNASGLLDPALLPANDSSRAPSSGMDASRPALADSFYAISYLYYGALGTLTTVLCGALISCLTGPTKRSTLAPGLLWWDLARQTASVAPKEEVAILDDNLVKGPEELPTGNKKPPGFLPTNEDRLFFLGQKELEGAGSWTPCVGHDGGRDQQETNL

[4] = target: T4, sodium iodide symporter (NIS), iodide uptake in FRTL5 cells (Rattus norvegicus, UniProt Q63008); test: Inhibition of iodide uptake in FRTL5 cells, non radioactive arsenic/cerium assay; assay type: cell-based; settings: averaged from three or four independent experiments, NaI 10 μM, 1 hour, 20°C, read-out: IC50 (μM), inhibitory activity against iodide uptake in FRTL5 cells
T4 construct: endogenous in cells; host or cells: FRTL5 (rat thyroid-derived cells)
T4 sequence (Q63008 1-618): T1 sequence (Q63008 1-618)
Experimental: Some of the synthesized compounds were evaluated for their ability to inhibit iodide entrapment in FRTL5 cells. The IC50 values were measured in at least […] independent experiments.
The biological activity of each compound was determined in FRTL5 cells, using a non radioactive arsenic/cerium assay as described in F. Waltz et al., Anal. Biochem., 2012, 396, 91-95. Compound potency was expressed as IC50, the concentration of compound necessary to achieve 50% inhibition of iodide uptake. Briefly, to FRTL5 cells at 70-90% confluence was added compound (200 μM, 10 μM, 0.5 μM, 25 nM, 1.2 nM, 60 pM, […], and 0.15 pM final), followed by NaI (10 μM final). After 1 hour incubation at 20±1° C., supernatant was removed and the cells were immediately assayed for iodide content using the modified As/Ce Sandell-Kolthoff reaction. NaClO4 was tested in each microplate as assay controls. The IC50 values of all compounds were measured least thrice independently.
Stock solutions of tested compounds were prepared in DMSO (20 mM) and that of NaClO4 in water (20 mM). These stock solutions were stored at 4° C. for up to 2 months. Sample dilutions: the day of the assay, a daughter plate (clear flat-bottomed 96-well polystyrene microplates, Costar 9017) was prepared from 20 mM stock solutions. NaClO4 (column 2) and DHPM samples (columns 4 to 11) were diluted at 10× the final concentration in uptake buffer.
FRTL5 cells were cultured as described in F. S. Ambesi-Impiombato et al., Proc. Natl. Acad. Sci. USA, 1980, 77, 3455-3459. Briefly, FRTL5 cells were cultured in Coon's modified F12 medium supplemented with 5% heat-inactivated fetal bovine serum (Invitrogen), 2 mM L-glutamine, 100 U/mL penicillin, 0.1 mg/mL streptomycin, 10 μg/mL insulin, 10 nM hydrocortisone, 10 ng/mL Gly-His-Lys acetate, 1 mU/mL TSH, 5 μg/mL transferrin at 37° C. and 5% CO2. For iodide uptake assays, 200 μL of FRTL5 cells with density of 250,000 cells/mL were dispensed in each well of clear flat-bottomed 96-well polystyrene microplates (Costar 3628) using the Multidrop 384 (ThermoFisher Scientific), and further cultured until confluence reached 80-90% (3-4 days).
The culture medium of FRTL5 monolayer cells at 80-90% confluence was replaced by uptake buffer (20° C.) via continuous aspiration/dispense cycle (600 μL) using a 96-needle head plate washer PW 384 (Tecan). The 96-needle head was set to a vertical position such that 80 μL of fresh uptake buffer remained in each well at the end of the cycle. The samples (10 μL each) from the daughter plate were transferred all at once to the assay plate using the 96-tip head pipettor Liquidator 96 (Mettler Toledo). Immediately after, 10 μL of a NaI solution at 100 μM was added to each well of the assay plate using the Liquidator 96. The assay plate was left to stand in the dark at 20±1° C. for 60 min. The assay plate was then washed with cold (4° C.) uptake buffer using the PW 384 plate washer and residual supernatant was immediately discarded by inverting the assay plate on absorbent paper.
Sodium iodide standards (S1 to S7) and water (S0) were distributed in duplicate (100 μL each) in the first and last column of the assay plate. Water (100 μL) was added to the columns with the Multidrop 384. 100 μL of the ammonium cerium (IV) sulfate solution (10.5 mM) was distributed into the columns, followed by 100 μL of the sodium arsenite (III) solution (24 mM) using the Multidrop 384. The assay plate was left to stand at 20±1° C. for 30 min. The absorbance at 420 nm (Abs420) was immediately recorded on a SpectraMax Plus 384 (Molecular Devices). A calibration curve was prepared for each plate by plotting the logarithmic conversion of the means of Abs420 (n=2) vs iodide standard concentrations (S0 to S7). The iodide concentrations in the samples were determined after linear regression of the calibration curve.

O=[N+]([O-])O [NO3^−]
IC50 [1]: 250 µM

F[B-](F)(F)c1ccc(OCc2ccccc2)cc1 [ITB11]
IC50 [2]: 0.4 µM

F[P-](F)(F)(F)(F)F [PF6^−]
IC50 [1]: 0.009 µM

F[B-](F)(F)F [BE4^−]
IC50 [1]: 0.75 µM

[O-][Cl+3]([O-])([O-])O [ClO4^−]
IC50 [1]: 0.14 µM

COc1ccc(COC(=O)C2=C(C)NC(=O)NC2c2ccccc2)cc1 (stereo not drawn) [Compound 1, 4-methoxybenzyl 6-methyl-2-oxo-4-phenyl-1,2,3,4-tetrahydropyrimidine-5-carboxylate]
melting point: 162 to 164 °C | Cytotoxicity [3]: not found cytotoxic | Efflux of iodide from preloaded hNIS-HEK293 cells (hNIS-HEK293 cells): can trigger a rapid efflux of iodide

COc1ccc(COC(=O)C2=C(CNC(=O)c3ccccc3)NC(=O)NC2c2ccccc2)cc1 (stereo not drawn) [Compound 47, 4-Methoxybenzyl 2-oxo-6-(benzamidomethyl)-4-phenyl-1,2,3,4-tetrahydropyrimidine-5-carboxylate]
melting point: 213 to 216 °C | IC50 ([4]; Table 3, variations at R2): 1.2 µM

COc1ccc(COC(=O)C2=C(C)NC(=O)NC2c2cccs2)cc1 (stereo not drawn) [Compound 30, 4-Methoxybenzyl 4-(thiophen-2-yl)-6-methyl-2-oxo-1,2,3,4-tetrahydropyrimidine-5-carboxylate]
melting point: 152 to 154 °C | IC50 ([4]; Table 1, variations at R1): 0.05 µM
